In patent US6403593B1, “Triazole compounds and the use thereof” (Abbott Laboratories, priority 1995, dated 2002):
Where a name gives a salt, the structure may show the parent alone. Read-outs that look alike come from different tables or passages of the source.

What was measured:
[1] = target: T1, human D3 receptor (Homo sapiens, UniProt P35462); assay: D3 binding assay (125I-iodosulpiride); settings: for Selectivity KiD2/KiD3: ratio of D2 (3H-spiperone) Ki to D3 (125I-sulpiride) Ki
T1 construct: host or cells: CCL 1.3 mouse fibroblasts
T1 sequence (P35462 whole entry): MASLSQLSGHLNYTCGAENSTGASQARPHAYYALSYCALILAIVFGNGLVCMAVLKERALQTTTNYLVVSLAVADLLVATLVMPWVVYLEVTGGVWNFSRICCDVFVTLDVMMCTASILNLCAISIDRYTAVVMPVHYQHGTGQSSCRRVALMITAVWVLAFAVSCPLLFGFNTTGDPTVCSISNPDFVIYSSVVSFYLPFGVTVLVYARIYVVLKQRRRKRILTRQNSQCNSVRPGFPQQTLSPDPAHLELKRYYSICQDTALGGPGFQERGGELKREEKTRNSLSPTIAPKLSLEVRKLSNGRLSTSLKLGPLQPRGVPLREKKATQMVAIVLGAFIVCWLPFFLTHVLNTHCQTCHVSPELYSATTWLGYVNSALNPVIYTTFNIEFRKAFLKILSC
Experimental: Cloned human D3 receptor-expressing CCL 1.3 mouse fibroblasts obtained from Res. Biochemicals Internat. One Strathmore Rd., Natick, Mass. 01760-2418 USA, were used for the binding studies.
The D3-expressing cells where grown in RPMI-1640 containing 10% fetal calf serum (GIBCO No. 041-32400 N); 100 U/ml penicillin and 0.2% streptomycin (GIBCO BRL, Gaithersburg, Md., USA). After 48h, the cells were washed with PBS and incubated with 0.05% trypsin-containing PBS for 5 min. Neutralization with medium was then carried out, and the cells were collected by centrifugation at 300×g. To lyze the cells, the pellet was briefly washed with lysis buffer (5 mM tris-HCl, pH 7.4, with 10% glycerol) and then incubated in a concentration of 10^7 cells/ml of lysis buffer at 4° C. for 30 min. The cells were centrifuged at 200×g for 10 min and the pellet was stored in liquid nitrogen.
For the D3 receptor binding assay, the membranes were suspended in incubation buffer (50 mM tris-HCl, pH 7.4, with […], 5 mM KCl, 2 mM CaCl2, 2 mM MgCl2, 10 μM quinolinol, 0.1% ascorbic acid and 0.1% BSA) in a concentration of about 10^6 cells/250 μl of assay mixture and incubated at 30° C. with 0.1 nM ^125iodosulpiride in the presence and absence of test substance. The non-specific binding was determines using 10^−6 M spiperone.
After 60 min, the free and the bound radioligand was separated by filtration through GF/B glasd fiber filters (Whatman, England) on a Skatron cell collector (Skatron, Lier, Norway), and the filters were washed with ice-cold tris-HCl buffer, pH 7.4. The radioactivity collected on the filters was quantified using a Packard 2200 CA ligand scintillation counter.
The Ki values were determined by non-linear regression analysis using the LIGAND program.

[2] = cloned human D3 receptor in CCL 1.3 mouse fibroblast membranes, 0.1 nM 125I-iodosulpiride, read-out: D3 125I-sulpiride Ki

Ki [1, 2]	Selectivity KiD2/KiD3 [1]	melting point	affinity for the D3 receptor (in words) ([1]; D3 binding assay)	Compound	Ki [1]
1.8 nM	67	–	–	CCn1c(N)nnc1SCCCN1CCN(c2cccc(C(F)F)c2)CC1 [Example 24]	–
13.4 nM	182	67 to 72 °C	–	CC(=CCN1CCN(c2cc(C(F)(F)F)nc(C(C)(C)C)n2)CC1)CSc1nnc(N)n1C [Example 42]	–
4100 nM	–	–	virtually no affinity	Cc1nnc(/C=C/CN2CCN(c3ccccc3)CC2)n1-c1ccccc1 [reference compound]	–
8.8 nM	58	–	–	Cn1c(N)nnc1SCCCN1CCN(c2cc(C(C)(C)C)cc(C(C)(C)C)c2)CC1 [Example 15]	–
1.7 nM	176	–	–	CNc1nnc(SCCCN2CCN(c3cccc(C(F)F)c3)CC2)n1C [Example 37]	–
–	–	234 to 235 °C	–	CNc1nnc(SCCCN2CCN(c3cccc(C(F)F)c3)CC2)n1C (as salt: hydrochloride) [Example 37]	–
8.1 nM	185	65 to 67 °C	–	Cc1cc(N2CCN(CCCSc3nnc(N)n3C)CC2)nc(-n2cccc2)n1 [Example 41]	–

Compound	Ki [1, 2]	Selectivity KiD2/KiD3 [1]	melting point	affinity for the D3 receptor (in words) ([1]; D3 binding assay)	Ki [1]
Cn1c(N)nnc1SCCCN1CCN(c2cccc(C(F)(F)F)c2)CC1 [Example 10]	–	49	–	–	4.5 nM
